Assays:
RET = RET (Homo sapiens, UniProt P07949); experiment: RET kinase inhibition, Caliper screening (fluorescent substrate phosphorylation, electrophoretic separation)
c-Kit = c-Kit (Homo sapiens, UniProt P10721); experiment: c-Kit tyrosine kinase inhibition, Caliper screening (fluorescent substrate phosphorylation, electrophoretic separation); assay type: biochemical
VEGFR-2 = VEGFR-2 (Homo sapiens, UniProt P35968); experiment: VEGFR-2 kinase inhibition, Caliper screening (fluorescent substrate phosphorylation, electrophoretic separation)
VEGFR-2, sequence (P35968 20-1356, species assumed): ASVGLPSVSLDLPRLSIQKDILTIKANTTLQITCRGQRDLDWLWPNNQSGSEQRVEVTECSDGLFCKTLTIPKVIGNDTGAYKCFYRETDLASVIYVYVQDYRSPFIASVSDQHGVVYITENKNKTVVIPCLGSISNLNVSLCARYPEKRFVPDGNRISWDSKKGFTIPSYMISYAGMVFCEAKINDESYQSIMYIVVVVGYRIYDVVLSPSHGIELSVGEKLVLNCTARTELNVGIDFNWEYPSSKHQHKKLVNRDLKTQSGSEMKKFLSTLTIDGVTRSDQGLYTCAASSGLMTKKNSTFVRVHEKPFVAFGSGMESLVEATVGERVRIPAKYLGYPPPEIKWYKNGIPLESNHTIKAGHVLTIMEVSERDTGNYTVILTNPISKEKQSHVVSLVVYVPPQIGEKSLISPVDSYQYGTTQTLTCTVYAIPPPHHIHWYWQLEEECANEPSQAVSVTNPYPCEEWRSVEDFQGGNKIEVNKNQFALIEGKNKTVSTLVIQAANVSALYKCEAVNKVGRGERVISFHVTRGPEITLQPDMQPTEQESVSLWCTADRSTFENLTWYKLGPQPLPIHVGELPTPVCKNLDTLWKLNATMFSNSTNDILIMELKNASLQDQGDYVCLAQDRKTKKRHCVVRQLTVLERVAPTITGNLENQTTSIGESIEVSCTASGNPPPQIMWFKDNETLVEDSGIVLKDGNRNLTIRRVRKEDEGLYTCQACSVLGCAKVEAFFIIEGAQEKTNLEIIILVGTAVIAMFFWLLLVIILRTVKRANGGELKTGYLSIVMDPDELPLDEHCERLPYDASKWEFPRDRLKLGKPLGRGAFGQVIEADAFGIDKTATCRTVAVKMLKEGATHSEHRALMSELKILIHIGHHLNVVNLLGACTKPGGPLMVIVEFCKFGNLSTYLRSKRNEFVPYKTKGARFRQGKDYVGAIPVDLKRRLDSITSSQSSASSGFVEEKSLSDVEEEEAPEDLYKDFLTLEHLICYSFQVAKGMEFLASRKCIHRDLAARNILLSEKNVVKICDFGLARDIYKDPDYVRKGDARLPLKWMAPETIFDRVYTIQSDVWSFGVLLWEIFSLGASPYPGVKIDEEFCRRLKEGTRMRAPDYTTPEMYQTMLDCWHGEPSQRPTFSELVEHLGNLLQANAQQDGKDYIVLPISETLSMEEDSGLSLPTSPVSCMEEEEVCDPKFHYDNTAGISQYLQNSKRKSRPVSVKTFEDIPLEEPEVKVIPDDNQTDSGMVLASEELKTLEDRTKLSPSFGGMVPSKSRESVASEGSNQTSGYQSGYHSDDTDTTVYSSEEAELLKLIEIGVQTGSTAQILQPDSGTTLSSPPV

[1] = concentration 1.0E−05 (unit not given)
[2] = concentration 1.0E−06 (unit not given)
[3] = concentration 1.0E−07 (unit not given)
[4] = concentration 1.0E−08 (unit not given)
[5] = concentration 1.0E−09 (unit not given)
[6] = concentration 1.0E−10 (unit not given)
[7] = concentration 3.0E−05 (unit not given)
[8] = concentration 3.0E−06 (unit not given)
[9] = concentration 3.0E−07 (unit not given)
[10] = concentration 3.0E−08 (unit not given)
[11] = concentration 3.0E−09 (unit not given)
[12] = concentration 3.0E−10 (unit not given)
[13] = fold of IC50 relative to sunitinib

RET, sequence (P07949 29-1114, species assumed): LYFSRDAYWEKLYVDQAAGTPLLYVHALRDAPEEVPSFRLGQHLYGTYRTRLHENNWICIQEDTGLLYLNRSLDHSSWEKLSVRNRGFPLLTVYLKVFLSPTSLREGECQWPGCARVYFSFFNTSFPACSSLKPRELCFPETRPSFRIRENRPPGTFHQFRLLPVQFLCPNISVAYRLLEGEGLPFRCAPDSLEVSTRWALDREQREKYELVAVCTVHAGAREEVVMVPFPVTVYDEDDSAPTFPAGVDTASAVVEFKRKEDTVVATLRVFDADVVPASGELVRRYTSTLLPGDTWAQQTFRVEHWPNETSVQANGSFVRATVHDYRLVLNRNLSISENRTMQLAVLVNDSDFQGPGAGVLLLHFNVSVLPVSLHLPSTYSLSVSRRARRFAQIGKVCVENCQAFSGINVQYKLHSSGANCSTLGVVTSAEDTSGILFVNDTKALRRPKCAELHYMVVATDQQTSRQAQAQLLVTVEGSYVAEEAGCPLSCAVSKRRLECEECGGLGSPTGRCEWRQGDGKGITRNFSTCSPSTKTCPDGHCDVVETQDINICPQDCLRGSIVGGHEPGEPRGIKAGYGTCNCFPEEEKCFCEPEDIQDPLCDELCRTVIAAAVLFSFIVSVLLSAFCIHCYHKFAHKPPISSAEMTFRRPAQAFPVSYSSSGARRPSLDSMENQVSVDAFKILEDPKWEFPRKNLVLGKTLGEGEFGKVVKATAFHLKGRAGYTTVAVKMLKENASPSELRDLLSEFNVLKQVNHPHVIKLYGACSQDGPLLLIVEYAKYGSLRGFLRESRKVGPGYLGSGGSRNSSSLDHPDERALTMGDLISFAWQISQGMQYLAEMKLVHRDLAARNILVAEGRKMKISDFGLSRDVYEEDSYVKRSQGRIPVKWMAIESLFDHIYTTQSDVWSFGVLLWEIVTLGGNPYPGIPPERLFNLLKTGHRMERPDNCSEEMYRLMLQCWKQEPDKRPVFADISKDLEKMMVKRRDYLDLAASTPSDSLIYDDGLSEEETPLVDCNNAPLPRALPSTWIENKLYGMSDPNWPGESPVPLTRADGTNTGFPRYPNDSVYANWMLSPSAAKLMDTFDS
c-Kit, sequence (P10721 26-976): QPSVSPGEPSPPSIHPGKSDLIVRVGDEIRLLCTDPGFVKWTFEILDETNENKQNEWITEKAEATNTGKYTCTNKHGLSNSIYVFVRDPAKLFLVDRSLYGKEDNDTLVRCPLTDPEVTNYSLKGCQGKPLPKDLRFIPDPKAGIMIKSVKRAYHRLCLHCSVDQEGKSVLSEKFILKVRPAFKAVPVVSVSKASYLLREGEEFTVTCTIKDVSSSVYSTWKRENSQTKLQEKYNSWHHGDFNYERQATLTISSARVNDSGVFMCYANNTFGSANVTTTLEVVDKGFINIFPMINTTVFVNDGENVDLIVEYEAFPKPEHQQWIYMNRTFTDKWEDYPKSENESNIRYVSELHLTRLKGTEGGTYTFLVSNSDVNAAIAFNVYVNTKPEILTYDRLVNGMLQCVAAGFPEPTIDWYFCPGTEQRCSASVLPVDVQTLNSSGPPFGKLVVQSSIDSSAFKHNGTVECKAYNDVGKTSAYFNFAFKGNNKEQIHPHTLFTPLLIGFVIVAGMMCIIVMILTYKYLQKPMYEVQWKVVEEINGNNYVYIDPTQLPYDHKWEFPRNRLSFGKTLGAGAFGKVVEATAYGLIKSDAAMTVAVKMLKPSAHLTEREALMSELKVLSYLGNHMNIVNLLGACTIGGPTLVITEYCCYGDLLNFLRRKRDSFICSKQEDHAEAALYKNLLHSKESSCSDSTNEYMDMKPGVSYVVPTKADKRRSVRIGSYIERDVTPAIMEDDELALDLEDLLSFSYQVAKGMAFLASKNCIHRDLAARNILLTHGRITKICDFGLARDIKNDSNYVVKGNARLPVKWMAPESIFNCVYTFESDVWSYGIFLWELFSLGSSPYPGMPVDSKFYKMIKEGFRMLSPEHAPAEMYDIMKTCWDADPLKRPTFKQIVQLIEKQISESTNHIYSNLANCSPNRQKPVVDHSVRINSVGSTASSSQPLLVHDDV

## COCCOCCOCCOCCOCCOCCOCCNC(=O)c1c(C)[nH]c(/C=C2\C(=O)Nc3ccc(F)cc32)c1C [mPEG7-semaxanib, (Z)-5-((5-fluoro-2-oxoindolin-3-ylidene)methyl)-2,4-dimethyl-1H-pyrrole-3-mPEG7-amide]
RET
  IC50: 620 nM
RET; [1]
  RET AVG % Activity at Specific Concentration: 2%
RET; [2]
  RET AVG % Activity at Specific Concentration: 38%
RET; [3]
  RET AVG % Activity at Specific Concentration: 85%
RET; [4]
  RET AVG % Activity at Specific Concentration: 98%
RET; [5]
  RET AVG % Activity at Specific Concentration: 99%
RET; [6]
  RET AVG % Activity at Specific Concentration: 98%
RET; [7]
  RET AVG % Activity at Specific Concentration: 0%
RET; [8]
  RET AVG % Activity at Specific Concentration: 14%
RET; [9]
  RET AVG % Activity at Specific Concentration: 68%
RET; [10]
  RET AVG % Activity at Specific Concentration: 93%
RET; [11]
  RET AVG % Activity at Specific Concentration: 99%
RET; [12]
  RET AVG % Activity at Specific Concentration: 98%
RET; [13]
  RET Fold: 14.42
c-Kit; averages of replicate wells
  IC50: 320 nM
c-Kit; [1]
  c-Kit AVG % Activity at Specific Concentration: −1%
c-Kit; [2]
  c-Kit AVG % Activity at Specific Concentration: 11%
c-Kit; [3]
  c-Kit AVG % Activity at Specific Concentration: 82%
c-Kit; [4]
  c-Kit AVG % Activity at Specific Concentration: 96%
c-Kit; [5]
  c-Kit AVG % Activity at Specific Concentration: 97%
c-Kit; [6]
  c-Kit AVG % Activity at Specific Concentration: 97%
c-Kit; [7]
  c-Kit AVG % Activity at Specific Concentration: −1%
c-Kit; [8]
  c-Kit AVG % Activity at Specific Concentration: 1%
c-Kit; [9]
  c-Kit AVG % Activity at Specific Concentration: 49%
c-Kit; [10]
  c-Kit AVG % Activity at Specific Concentration: 96%
c-Kit; [11]
  c-Kit AVG % Activity at Specific Concentration: 98%
c-Kit; [12]
  c-Kit AVG % Activity at Specific Concentration: 96%
c-Kit; [13]
  c-Kit Fold: 4.30
VEGFR-2
  IC50: 310 nM
VEGFR-2; [1]
  VEGFR-2 AVG % Activity at Specific Concentration: −3%
VEGFR-2; [2]
  VEGFR-2 AVG % Activity at Specific Concentration: 19%
VEGFR-2; [3]
  VEGFR-2 AVG % Activity at Specific Concentration: 80%
VEGFR-2; [4]
  VEGFR-2 AVG % Activity at Specific Concentration: 95%
VEGFR-2; [5]
  VEGFR-2 AVG % Activity at Specific Concentration: 95%
VEGFR-2; [6]
  VEGFR-2 AVG % Activity at Specific Concentration: 98%
VEGFR-2; [7]
  VEGFR-2 AVG % Activity at Specific Concentration: −6%
VEGFR-2; [8]
  VEGFR-2 AVG % Activity at Specific Concentration: 0%
VEGFR-2; [9]
  VEGFR-2 AVG % Activity at Specific Concentration: 46%
VEGFR-2; [10]
  VEGFR-2 AVG % Activity at Specific Concentration: 90%
VEGFR-2; [11]
  VEGFR-2 AVG % Activity at Specific Concentration: 93%
VEGFR-2; [12]
  VEGFR-2 AVG % Activity at Specific Concentration: 94%
VEGFR-2; [13]
  VEGFR-2 Fold: 6.33

Reference: patent publication US11007270B2, “Polymer-semaxanib moiety conjugates” (Nektar Therapeutics, priority 2010, dated 2021)
